# Assay results taken from patent US20250313572A1, “MACROCYCLIC MCL-1 INHIBITORS AND METHODS OF USE” (AbbVie Inc., priority 2017, published 2025).
# Read-outs that look alike come from different tables or passages of the source.
# Tests used:
# [1] = tested on: NCI-H929 human multiple myeloma tumor cell line; experiment: NCI-H929 cell viability assay (CellTiter-Glo, 24 hours); type: cell-based; conditions: Homo sapiens, NCI-H929, 24 h, read-out: H929 Viability IC50 (μM, 10% FBS), 10% FBS, 24 hours of compound treatment
# GST-MCL-1 = GST-MCL-1 (Homo sapiens, UniProt Q07820); experiment: TR-FRET MCL-1 binding assay (competition with probe F-Bak)
# Chain of GST-MCL-1 (Q07820 whole entry): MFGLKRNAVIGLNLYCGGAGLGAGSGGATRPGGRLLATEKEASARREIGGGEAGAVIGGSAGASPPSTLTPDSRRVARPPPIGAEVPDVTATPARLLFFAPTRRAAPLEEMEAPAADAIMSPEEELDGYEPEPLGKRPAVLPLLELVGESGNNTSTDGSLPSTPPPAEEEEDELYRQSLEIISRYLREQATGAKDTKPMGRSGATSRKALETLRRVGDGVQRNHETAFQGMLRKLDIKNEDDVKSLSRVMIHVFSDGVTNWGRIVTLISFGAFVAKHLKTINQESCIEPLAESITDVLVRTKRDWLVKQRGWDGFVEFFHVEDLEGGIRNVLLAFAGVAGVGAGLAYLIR
# Method in brief: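 Test compounds, 11 three-fold dilutions from 25 μM final, incubated 2 hours at room temperature with GST-MCL-1, F-Bak probe and Tb-anti-GST antibody. TR-FRET read at 340/35 nm excitation with 520/525 and 495/510 nm emission. Run without human serum and with 10% HS.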
# [2] = tested on: AMO-1 human multiple myeloma tumor cell line; experiment: AMO-1 cell viability assay (CellTiter-Glo, 24 hours); type: cell-based; conditions: Homo sapiens, AMO1, 24 h, read-out: AMO-1 Viability IC50 (μM, 10% FBS), 10% FBS, 24 hours of compound treatment
# [3] = MCL-1 Binding Ki (nM, 10% HS), in the presence of 10% HS (human serum)
# [4] = without HS, read-out: MCL-1 Binding Ki
Structure (SMILES),IC50 [1] [µM],Ki (GST-MCL-1; [3]) [nM],Ki (GST-MCL-1; [4]) [nM],IC50 [2] [µM]
"COCCOCCOCC1(F)CC=C(c2nccc(COc3ccc4cc3C[C@H](C(=O)O)Oc3ncnc5sc(C6CCC6)c(c35)-c3c(C)c(Cl)c(c(Cl)c3C)O[C@H](CN3CCN(C)CC3)CO4)n2)CC1 (single isomer, unassigned) [Example 130, (7R,16R)-19,23-dichloro-1-cyclobutyl-10-({2-[(4R*)-4-fluoro-4-{[2-(2-methoxyethoxy)ethoxy]methyl}cyclohex-1-en-1-yl]pyrimidin-4-yl}methoxy)-20,22-dimethyl-16-[(4-methylpiperazin-1-yl)methyl]-7,8,15,16-tetrahydro-18,21-etheno-13,9-(metheno)-6,14,17-trioxa-2-thia-3,5-diazacyclononadeca[1,2,3-cd]indene-7-carboxylic Acid]",0.000489,1.74,0.026,0.000309
"Cc1c(Cl)c2c(Cl)c(C)c1-c1c(-c3ccc(F)cc3)sc3ncnc(c13)O[C@@H](C(=O)O)Cc1cc(ccc1OCc1ccnc(N3C[C@H]4C[C@@H](C3)[C@H]4O)n1)OC[C@@H](CN1CCN(C)CC1)O2 [Example 167, (7R,16R)-19,23-dichloro-1-(4-fluorophenyl)-10-({2-[(1R,5S,6r)-6-hydroxy-3-azabicyclo[3.1.1]heptan-3-yl]pyrimidin-4-yl}methoxy)-20,22-dimethyl-16-[(4-methylpiperazin-1-yl)methyl]-7,8,15,16-tetrahydro-18,21-etheno-13,9-(metheno)-6,14,17-trioxa-2-thia-3,5-diazacyclononadeca[1,2,3-cd]indene-7-carboxylic Acid]",0.00892,0.698,0.06,0.002
"Cc1c(Cl)c2c(Cl)c(C)c1-c1c(-c3ccc(F)cc3)sc3ncnc(c13)O[C@@H](C(=O)O)Cc1cc(ccc1OCc1ccnc(-c3ccc(S(=O)(=O)N4CCOCC4)cc3)n1)OC[C@@H](CN1CCN(C)CC1)O2 [Example 145, (7R,16R)-19,23-dichloro-1-(4-fluorophenyl)-20,22-dimethyl-16-[(4-methylpiperazin-1-yl)methyl]-10-({2-[4-(morpholine-4-sulfonyl)phenyl]pyrimidin-4-yl}methoxy)-7,8,15,16-tetrahydro-18,21-etheno-13,9-(metheno)-6,14,17-trioxa-2-thia-3,5-diazacyclononadeca[1,2,3-cd]indene-7-carboxylic Acid]",0.000973,0.399,0.081,0.000407
"COCCOCCOCCOc1ccccc1-c1nccc(COc2ccc3cc2C[C@H](C(=O)O)Oc2ncnc4sc(-c5ccc(F)cc5)c(c24)-c2c(C)c(Cl)c(c(Cl)c2C)O[C@H](CN2CCN(C)CC2)CO3)n1 [Example 15, (7R,16R,21S)-19,23-dichloro-1-(4-fluorophenyl)-10-{[2-(2-{2-[2-(2-methoxyethoxy)ethoxy]ethoxy}phenyl)pyrimidin-4-yl]methoxy}-20,22-dimethyl-16-[(4-methylpiperazin-1-yl)methyl]-7,8,15,16-tetrahydro-18,21-etheno-9,13-(metheno)-6,14,17-trioxa-2-thia-3,5-diazacyclononadeca[1,2,3-cd]indene-7-carboxylic Acid]",0.000751,0.152,0.015,0.000524
"Cc1c(Cl)c2c(Cl)c(C)c1-c1c(-c3ccc(F)cc3)sc3ncnc(c13)O[C@@H](C(=O)O)Cc1cc(ccc1OCc1ccnc([C@]3(O)CCCC[C@H]3O)n1)OC[C@@H](CN1CCN(C)CC1)O2 [Example 39, (7R,16R)-19,23-dichloro-10-({2-[(1R,2R)-1,2-dihydroxycyclohexyl]pyrimidin-4-yl}methoxy)-1-(4-fluorophenyl)-20,22-dimethyl-16-[(4-methylpiperazin-1-yl)methyl]-7,8,15,16-tetrahydro-18,21-etheno-9,13-(metheno)-6,14,17-trioxa-2-thia-3,5-diazacyclononadeca[1,2,3-cd]indene-7-carboxylic Acid]",0.00353,0.193,0.042,0.00119
"Cc1c(Cl)c2c(Cl)c(C)c1-c1c(-c3ccc(F)cc3)sc3ncnc(c13)O[C@@H](C(=O)O)Cc1cc(ccc1OCc1ccnc(N3CC4C(C3)C4(F)F)n1)OC[C@@H](CN1CCN(C)CC1)O2 (stereo partly drawn) [Example 33, (7R,16R)-19,23-dichloro-10-{[2-(6,6-difluoro-3-azabicyclo[3.1.0]hexan-3-yl)pyrimidin-4-yl]methoxy}-1-(4-fluorophenyl)-20,22-dimethyl-16-[(4-methylpiperazin-1-yl)methyl]-7,8,15,16-tetrahydro-18,21-etheno-13,9-(metheno)-6,14,17-trioxa-2-thia-3,5-diazacyclononadeca[1,2,3-cd]indene-7-carboxylic Acid]",0.00123,2.23,0.088,0.000282
"Cc1c(Cl)c2c(Cl)c(C)c1-c1c(-c3ccc(F)cc3)sc3ncnc(c13)O[C@@H](C(=O)O)Cc1cc(ccc1OCc1ccnc(N3CCP(C)(=O)CC3)n1)OC[C@@H](CN1CCN(C)CC1)O2 [Example 25, (7R,16R)-19,23-dichloro-1-(4-fluorophenyl)-20,22-dimethyl-10-{[2-(4-methyl-4-oxo-1,4λ^5-azaphosphinan-1-yl)pyrimidin-4-yl]methoxy}-16-[(4-methylpiperazin-1-yl)methyl]-7,8,15,16-tetrahydro-18,21-etheno-13,9-(metheno)-6,14,17-trioxa-2-thia-3,5-diazacyclononadeca[1,2,3-cd]indene-7-carboxylic Acid]",0.0808,5.7,0.844,0.0727
"Cc1c(Cl)c2c(Cl)c(C)c1-c1c(-c3ccc(F)cc3)sc3ncnc(c13)O[C@@H](C(=O)O)Cc1cc(ccc1OCc1ccnc(-c3ccc(OC[C@@H]4CN(C)CCO4)cc3)n1)OC[C@@H](CN1CCN(C)CC1)O2 [Example 157, (7R,16R)-19,23-dichloro-1-(4-fluorophenyl)-20,22-dimethyl-10-{[2-(4-{[(2S)-4-methylmorpholin-2-yl]methoxy}phenyl)pyrimidin-4-yl]methoxy}-16-[(4-methylpiperazin-1-yl)methyl]-7,8,15,16-tetrahydro-18,21-etheno-9,13-(metheno)-6,14,17-trioxa-2-thia-3,5-diazacyclononadeca[1,2,3-cd]indene-7-carboxylic Acid]",0.000821,0.168,0.008,0.000233
"COCCOCCOC[C@]1(F)CC[C@@H](c2nccc(COc3ccc4cc3C[C@H](C(=O)O)Oc3ncnc5sc(-c6ccc(F)cc6)c(c35)-c3c(C)c(Cl)c(c(Cl)c3C)O[C@H](CN3CCN(C)CC3)CO4)n2)CC1 [Example 96, (7R,16R)-19,23-dichloro-10-({2-[(1s,4s)-4-fluoro-4-{[2-(2-methoxyethoxy)ethoxy]methyl}cyclohexyl]pyrimidin-4-yl}methoxy)-1-(4-fluorophenyl)-20,22-dimethyl-16-[(4-methylpiperazin-1-yl)methyl]-7,8,15,16-tetrahydro-18,21-etheno-13,9-(metheno)-6,14,17-trioxa-2-thia-3,5-diazacyclononadeca[1,2,3-cd]indene-7-carboxylic Acid]",0.000259,0.037,0.003,0.000287
"Cc1c(Cl)c2c(Cl)c(C)c1-c1c(-c3ccc(F)cc3)sc3ncnc(c13)O[C@@H](C(=O)O)Cc1cc(ccc1OCc1ccnc(C(C)(C)COCCOC[C@H]3COCCO3)n1)OC[C@@H](CN1CCN(C)CC1)O2 [Example 80, (7R,16R)-19,23-dichloro-10-({2-[1-(2-{[(2R)-1,4-dioxan-2-yl]methoxy}ethoxy)-2-methylpropan-2-yl]pyrimidin-4-yl}methoxy)-1-(4-fluorophenyl)-20,22-dimethyl-16-[(4-methylpiperazin-1-yl)methyl]-7,8,15,16-tetrahydro-18,21-etheno-13,9-(metheno)-6,14,17-trioxa-2-thia-3,5-diazacyclononadeca[1,2,3-cd]indene-7-carboxylic Acid]",0.000954,0.797,0.107,0.000189
"Cc1c(Cl)c2c(Cl)c(C)c1-c1c(-c3ccc(F)cc3)sc3ncnc(c13)O[C@@H](C(=O)O)Cc1cc(ccc1OCc1ccnc(-c3cccc(CCN4CCOCC4)c3)n1)OC[C@@H](CN1CCN(C)CC1)O2 [Example 143, (7R,16R)-19,23-dichloro-1-(4-fluorophenyl)-20,22-dimethyl-16-[(4-methylpiperazin-1-yl)methyl]-10-[(2-{3-[2-(morpholin-4-yl)ethyl]phenyl}pyrimidin-4-yl)methoxy]-7,8,15,16-tetrahydro-18,21-etheno-13,9-(metheno)-6,14,17-trioxa-2-thia-3,5-diazacyclononadeca[1,2,3-cd]indene-7-carboxylic Acid]",0.000203,0.175,0.023,0.000216
"COC1CC2(C1)CN(c1nccc(COc3ccc4cc3C[C@H](C(=O)O)Oc3ncnc5sc(-c6ccc(F)cc6)c(c35)-c3c(C)c(Cl)c(c(Cl)c3C)O[C@H](CN3CCN(C)CC3)CO4)n1)C2 [Example 79, (7R,16R)-19,23-dichloro-1-(4-fluorophenyl)-10-{[2-(6-methoxy-2-azaspiro[3,3]heptan-2-yl)pyrimidin-4-yl]methoxy}-20,22-dimethyl-16-[(4-methylpiperazin-1-yl)methyl]-7,8,15,16-tetrahydro-18,21-etheno-9,13-(metheno)-6,14,17-trioxa-2-thia-3,5-diazacyclononadeca[1,2,3-cd]indene-7-carboxylic Acid]",0.00163,1,0.088,0.000418
